The values below come from article PMC6801822, “The Bactericidal Activity of Temporin Analogues Against Methicillin Resistant Staphylococcus aureus” (International Journal of Molecular Sciences, 2019).

≈ marks a conversion by molar mass, not a printed value. Like-named read-outs stand apart in the source and are kept apart here. Non-standard residues stand in square brackets, D forms with d. Residues, ends and D or L forms follow the SMILES beside them. AEEA = NCCOCCOCC(=O)O; βAla = NCCC(=O)O

One data set deals with S. aureus ATCC 25923. The conditions noted are these: ATCC 25923, 24 h.
The subject of data set [1] is S. aureus USA300. Conditions: for MIC: USA300, 24 h.
Method: (§1) Antimicrobial activity of peptides was analyzed through determination of MIC parameter according to the standard microdilution technique performed on 96-well plates. Mueller-Hinton broth (MHB, Sigma Aldrich, St. Louis, MO, USA) was used as the working medium for all bacterial strains. Briefly, inoculum was prepared from freshly grown cultures of bacteria being at their exponential phase of growth. Each well of 96-well plates containing 100 µL of serially diluted peptides in PBS at desired concentration was inoculated with 100 µL of 10^5 CFU/mL of bacterial suspension. Then plates were incubated overnight 37 °C and absorbance was read at 600 nm after 24 h. Wells without peptide were treated as the positive control, while uninoculated MHB was defined as the negative control. All measurements were run in triplicates.
For a further data set, the system named is S. aureus Newman. The conditions noted are these: Newman, 24 h.
Data set [2] deals with S. epidermidis ATCC 12228. The conditions noted are these: ATCC 12228, 24 h.
Method: as §1
For data set [3] the following is noted: cited from earlier work. From the text: The efficient antibacterial activity of the DAL-PEG-DK5 conjugate may be due to the fact that it has a higher cationic charge than DK5 (+7 vs. +6, respectively). However, a α-helicity must also play an important role in this case. According to a common view about the mechanism underlying the antimicrobial activity of AMPs, formation of hel ...

Data set [4] has as its system S. aureus USA300. In words: microbe, parasite or virus in culture. The conditions noted are these: Staphylococcus aureus, MRSA / USA300, 24 h.
Method: as §1
Data set [5] concerns intracellular MRSA clinical isolate. Conditions: cited from earlier work; for MIC: MRSA clinical isolate. The source says: Cumulatively, these findings encouraged us to test the ability of the peptide conjugate to kill invasive intracellular MRSA. […] In addition, ...

Method for S. aureus ATCC 25923: as §1
Method for S. aureus Newman: as §1

Regarding `CC[C@H](C)[C@H](NC(=O)COCCOCCNC(=O)[C@H](Cc1c[nH]cn1)NC(=O)CCNC(=O)[C@H](Cc1c[nH]cn1)NC(=O)CCNC(=O)[C@H](Cc1c[nH]cn1)NC(=O)CCN)C(=O)N[C@@H](CCCCN)C(=O)N[C@@H](CCCCN)C(=O)N[C@H](C(=O)N[C@@H](CC(C)C)C(=O)N[C@@H](CO)C(=O)N[C@H](CCCCN)C(=O)N[C@H](C(=O)N[C@@H](CCCCN)C(=O)N[C@@H](CCCCN)C(=O)N[C@@H](CC(C)C)C(=O)N[C@@H](CC(C)C)C(N)=O)[C@@H](C)CC)[C@@H](C)CC` [CAR3-PEG-DK5] (H-[βAla]H[βAla]H[βAla]H[AEEA]IKKILS[dK]IKKLL-NH2; N-terminus assumed), the MIC in the data set with S. aureus ATCC 25923 was >190 µg/mL; against S. aureus USA300 [1] it was >190 µg/mL; in the data set on S. aureus Newman, >190 µg/mL; in data set [2] it was 110 µg/mL (≈ 50.1 µM).
As for `CC[C@H](C)[C@H](NC(=O)COCCOCCNC(=O)[C@H](Cc1c[nH]cn1)NC(=O)CCN)C(=O)N[C@@H](CCCCN)C(=O)N[C@@H](CCCCN)C(=O)N[C@H](C(=O)N[C@@H](CC(C)C)C(=O)N[C@@H](CO)C(=O)N[C@H](CCCCN)C(=O)N[C@H](C(=O)N[C@@H](CCCCN)C(=O)N[C@@H](CCCCN)C(=O)N[C@@H](CC(C)C)C(=O)N[C@@H](CC(C)C)C(N)=O)[C@@H](C)CC)[C@@H](C)CC` [CAR-PEG-DK5] (H-[βAla]H[AEEA]IKKILS[dK]IKKLL-NH2; N-terminus assumed), the MIC is >190 µg/mL in the data set with S. aureus ATCC 25923, >190 µg/mL against S. aureus USA300 [1], >190 µg/mL against S. aureus Newman and 40 µg/mL (≈ 22.5 µM) in data set [2].
Take `CC[C@H](C)[C@H](NC(=O)COCCOCCNC(=O)CNC(=O)[C@@H]1CCCN1C(=O)[C@H](CCC(=O)O)NC(=O)[C@H](CC(C)C)NC(=O)CNC(=O)[C@@H](N)CCC(=O)O)C(=O)N[C@@H](CCCCN)C(=O)N[C@@H](CCCCN)C(=O)N[C@H](C(=O)N[C@@H](CC(C)C)C(=O)N[C@@H](CO)C(=O)N[C@H](CCCCN)C(=O)N[C@H](C(=O)N[C@@H](CCCCN)C(=O)N[C@@H](CCCCN)C(=O)N[C@@H](CC(C)C)C(=O)N[C@@H](CC(C)C)C(N)=O)[C@@H](C)CC)[C@@H](C)CC` [COMB1-PEG-DK5] (H-EGLEPG[AEEA]IKKILS[dK]IKKLL-NH2; N-terminus assumed): the MIC (with S. aureus ATCC 25923; in the data set on S. aureus USA300 [1]; against S. aureus Newman; in data set [2]) was >190 µg/mL throughout.
Regarding `CC[C@H](C)[C@H](N)C(=O)N[C@@H](CCCCN)C(=O)N[C@@H](CCCCN)C(=O)N[C@H](C(=O)N[C@@H](CC(C)C)C(=O)N[C@@H](CO)C(=O)N[C@H](CCCCN)C(=O)N[C@H](C(=O)N[C@@H](CCCCN)C(=O)N[C@@H](CCCCN)C(=O)N[C@@H](CC(C)C)C(=O)N[C@@H](CC(C)C)C(=O)NCCOCCOCC(=O)N[C@@H](Cc1ccc(O)cc1)C(=O)N[C@H](C)C(=O)NCC(=O)N[C@@H](Cc1ccccc1)C(=O)N[C@@H](CC(C)C)C(=O)N[C@@H](CCCNC(=N)N)C(N)=O)[C@@H](C)CC)[C@@H](C)CC` [DK5-PEG-DAL] (H-IKKILS[dK]IKKLL[AEEA]Y[dA]GFLR-NH2; N-terminus and C-terminus assumed), in the data set on S. aureus USA300 [1] (comparison of MIC 160 vs 40 μg/mL), the “inhibition of USA300 growth relative to DAL-PEG-DK5” value is given as “four times less”. Moreover, the α-helical content in data set [3] (circular dichroism, 30 mM SDS in water) is 20%.
Turning to `CC[C@H](C)[C@H](N)C(=O)N[C@@H](CCCCN)C(=O)N[C@@H](CCCCN)C(=O)N[C@H](C(=O)N[C@@H](CC(C)C)C(=O)N[C@@H](CO)C(=O)N[C@H](CCCCN)C(=O)N[C@H](C(=O)N[C@@H](CCCCN)C(=O)N[C@@H](CCCCN)C(=O)N[C@@H](CC(C)C)C(=O)N[C@@H](CC(C)C)C(N)=O)[C@@H](C)CC)[C@@H](C)CC` [DK5] (H-IKKILS[dK]IKKLL-NH2; N-terminus assumed), in the data set with S. aureus USA300 [1], the MIC is >190 µg/mL. Besides, the cationic charge result in data set [3] is on record as “+6”.
Consider `CC(=O)NC[C@H]1CN(c2ccc(N3CCOCC3)c(F)c2)C(=O)O1` [Linezolid, linezolid], for which the MIC in the data set on S. aureus USA300 [4] is 1 µg/mL (≈ 2.96 µM).
With `CN[C@H](CC(C)C)C(=O)N[C@H]1C(=O)N[C@@H](CC(N)=O)C(=O)N[C@H]2C(=O)N[C@H]3C(=O)N[C@H](C(=O)N[C@H](C(=O)O)c4cc(O)cc(O)c4-c4cc3ccc4O)[C@H](O)c3ccc(c(Cl)c3)Oc3cc2cc(c3O[C@@H]2O[C@H](CO)[C@@H](O)[C@H](O)[C@H]2O[C@H]2C[C@](C)(N)[C@H](O)[C@H](C)O2)Oc2ccc(cc2Cl)[C@H]1O` [Vancomycin, vancomycin], in the data set with S. aureus USA300 [4], the MIC stood at 1 µg/mL (≈ 0.69 µM).
For temporin A, the MIC in data set [5] is 8 µM. In data set [5] (at 2 × MIC), the “killed intracellular MRSA” value is recorded as 20%.
With temporin B, in data set [5], the MIC was 16 µM. For the same compound, in data set [5] (at 4 × MIC), the “killed intracellular MRSA” value was 40%.
